Test results published in patent US4406888A, “Aqueous micellar solutions of levonantradol and N-methyllevonantradol and lyophilic forms thereof for reconstitution” (Pfizer Inc., priority 1981, dated 1983).
Counter-ions that a name gives are not always drawn.

Tests used:
[1] = Stability of the active ingredient upon storage (general statement); type: physicochemical; settings: particularly in solution
[2] = accelerated stability studies, at least nine weeks, 37° C.
Protocol: The procedure comprises dissolving the Polysorbate 80 USP in about 60% of the required water (previously degassed to remove dissolved air) at room temperature. […] The pharmaceutical necessities; i.e., mannitol, sodium citrate and sodium metabisulfite were then added together with about 20-25% of the remaining volume of water required. The pH was adjusted to 5.5 by addition of hydrochloric acid (10%) and the balance of water then added. The resulting formulation was made sterile by filtration and stored in amber vials sealed under a nitrogen atmosphere.
The samples are analyzed for activity by a HPLC method using a Chromegabond C-8 column (silica silylated with octyltrichlorosilane, available from E. S. Industries, 8 South Maple Avenue, Marlton, N.J. 08053). The column is 4.6 mm I.D.×30 cm.; the mobile phase is 60% acetonitrile-40% phosphate buffer (0.05 M, pH 6.3) and the flow rate is 2 ml. per minute. Detection is by UV at 210 nm.

[3] = Water solubility in micellar solutions of Polysorbate 80 USP; type: physicochemical; settings: for Solubility: 25° C., pH 5.0, based on 88.8% activity
Protocol: This temperature dependence of water solubilty of active ingredient is overcome by the use of sufficient concentration of amphiphile above the cmc such that the solubility of active ingredient is […] at said lowest temperature. The water solubility of active ingredients increases with increasing concentration above the cmc as is shown below for levonantradol in micellar solutions of Polysorbate 80 USP at pH 5.0 and 25° C.

## CC(=O)Oc1cc(O[C@H](C)CCCc2ccccc2)cc2c1[C@@H]1C[C@H](O)CC[C@H]1[C@H](C)N2 [Levonantradol, [6S-[3S*,6-alpha,6a-alpha,9-alpha,10a-beta]]-5,6,6a,7,8,9,10,10a-octahydro-6-methyl-3-(1-methyl-4-phenylbutoxy)-1,9-phenanthridinediol 1-acetate, hydrochloride]
[1]
  stability upon storage: subject to decomposition upon storage
[2]
  stability in micellar solutions: completely stable
[3]; with decreasing temperature
  water solubility: reduced water solubility with decreasing temperature

## CC(=O)Oc1cc(O[C@H](C)CCCc2ccccc2)cc2c1[C@@H]1C[C@H](O)CC[C@H]1[C@H](C)N2C [N-methyllevonantradol]
[1]
  stability upon storage: subject to decomposition upon storage
[3]; with decreasing temperature
  water solubility: reduced water solubility with decreasing temperature

## CC(=O)Oc1cc(O[C@H](C)CCCc2ccccc2)cc2c1[C@@H]1C[C@H](O)CC[C@H]1[C@H](C)N2 [Levonantradol.HC1, [6S-[3S*,6-alpha,6a-alpha,9-alpha,10a-beta]]-5,6,6a,7,8,9,10,10a-octahydro-6-methyl-3-(1-methyl-4-phenylbutoxy)-1,9-phenanthridinediol 1-acetate, hydrochloride]
[3]; 0.1% (w/v) Polysorbate 80 USP
  Solubility: 2.2 µg/mL
[3]; 0.2% (w/v) Polysorbate 80 USP
  Solubility: 67 µg/mL
[3]; 0.3% (w/v) Polysorbate 80 USP
  Solubility: 130 µg/mL
[3]; 0.4% (w/v) Polysorbate 80 USP
  Solubility: 290 µg/mL
[3]; 0.5% (w/v) Polysorbate 80 USP
  Solubility: 430 µg/mL
[3]; 0.8% (w/v) Polysorbate 80 USP
  Solubility: 880 µg/mL
[3]; 1.0% (w/v) Polysorbate 80 USP
  Solubility: 1230 µg/mL
[3]; 1.5% (w/v) Polysorbate 80 USP
  Solubility: 2040 µg/mL
[3]; 2.0% (w/v) Polysorbate 80 USP
  Solubility: 2850 µg/mL
[3]; 2.5% (w/v) Polysorbate 80 USP
  Solubility: 3810 µg/mL
[3]; 3.0% (w/v) Polysorbate 80 USP
  Solubility: 4440 µg/mL
[3]; 3.5% (w/v) Polysorbate 80 USP
  Solubility: 5600 µg/mL
[3]; 4.0% (w/v) Polysorbate 80 USP
  Solubility: 6300 µg/mL
[3]; 4.5% (w/v) Polysorbate 80 USP
  Solubility: 6990 µg/mL
[3]; 5.0% (w/v) Polysorbate 80 USP
  Solubility: 7550 µg/mL
[3]; 7.0% (w/v) Polysorbate 80 USP
  Solubility: 11280 µg/mL
[3]; presence of a relatively low concentration of Polysorbate 80
  water solubility: markedly increased
